pIC50: −log10 of the molar value.
Each compound was assayed against T1, S-COMT enzyme (Homo sapiens, UniProt P21964) (assay: Determination of COMT activity (IC50)). Details: S-COMT about 30 nM, 3 mM dopamine substrate, 0.05 mM AdoMet, 5 mM MgCl2, pH 7.4, 37° C., 15 min.
T1 sequence (P21964 1-221 isoform P21964-2): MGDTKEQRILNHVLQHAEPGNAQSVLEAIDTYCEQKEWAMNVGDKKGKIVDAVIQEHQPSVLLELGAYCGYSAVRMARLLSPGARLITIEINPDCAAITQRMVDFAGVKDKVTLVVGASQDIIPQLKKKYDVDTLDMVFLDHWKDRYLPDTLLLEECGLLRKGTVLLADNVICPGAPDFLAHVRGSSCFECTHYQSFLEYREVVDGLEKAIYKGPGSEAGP
Assay type: biochemical
Experimental: Experiment I: Determination of COMT Activity (IC50)
The determination of IC50 was performed by mesuring the COMT activity in a test sample which contained S-COMT enzyme (about 30 nM), 3 mM dopamine (as the substrate of COMT), 5 mM magnesium chloride, 0.05 mM S-adenosyl-L-methionine (AdoMet) and a test compound of the invention at various concentrations in 0.1 M phosphate buffer, pH 7.4, at 37° C.
The reaction in the test sample was initiated by adding the dopamine substrate to the sample mixture and, after incubation for 15 min at 37° C., the reaction was stopped with 4 M perchloric acid and stabilized further 10 min in ice bath. Thereafter the precipitated proteins were removed by centrifugation (4000×G for 10 min). The activity of COMT enzyme was measured by determining the concentration of the reaction products, 3-methyldopamine and 4-methyidopamine, by HPLC. The results were calibrated with 3-methyidopamine standards. See also T.Lotta et al., Biochemistry, vol.34(13), 1995, p.4204, T.Lotta et al. The IC50 value is the concentration of the test compound which causes a 50% decrease in COMT activity.
A pIC50 of 7.52 was found for O=c1oc2c([N+](=O)[O-])c(O)c(O)cc2cc1-c1ccccc1 [Example 6(b), 6,7-Dihydroxy-8-nitro-3-phenyl-chromen-2-one] in this work.
A pIC50 of 7.52 was found for O=C(c1ccccc1)c1cc2c([N+](=O)[O-])c(O)c(O)cc2oc1=O [Example 7, 3-Benzoyl-6,7-dihydroxy-5-nitro-chromen-2-one] in this work.
A pIC50 of 7.30 was found for O=c1oc2cc(O)c(O)c([N+](=O)[O-])c2c2c1CCCC2 [Example 8, 2,3-Dihydroxy-1-nitro-7,8,9,10-tetrahydro-benzo[c]chromen-6-one] in this work.
A pIC50 of 7.70 was found for O=C(O)c1cc2c([N+](=O)[O-])c(O)c(O)cc2oc1=O [Example 9(c), 6,7-Dihydroxy-5-nitro-2-oxo-2H-chromene-3-carboxylic acid] in this work.
A pIC50 of 7.46 was found for O=C(O)c1cc2cc(O)c(O)c([N+](=O)[O-])c2oc1=O [Example 10(d), 6,7-Dihydroxy-8-nitro-2-oxo-2H-chromene-3-carboxylic acid] in this work.
A pIC50 of 8.00 was found for O=C(O)Cc1cc2c([N+](=O)[O-])c(O)c(O)cc2oc1=O [Example 11(c), (6,7-Dihydroxy-5-nitro-2-oxo-2H-chromen-3-yl)-acetic acid] in this work.
A pIC50 of 8.00 was found for O=c1oc2cc(O)c(O)c([N+](=O)[O-])c2cc1-c1nnn[nH]1 [Example 12(b), 6,7-Dihydroxy-5-nitro-3-(1H-tetrazol-5-yl)-chromen-2-one] in this work.
A pIC50 of 7.22 was found for Cc1c(CC(=O)O)c(=O)oc2cc(O)c(O)c([N+](=O)[O-])c12 [Example 13(c), (6,7-Dihydroxy-4-methyl-5-nitro-2-oxo-2H-chromen-3-yl)-acetic acid] in this work.
